Holding throughout (format): biochemical
Assay [1] has as its target JNK3 (Homo sapiens, UniProt P53779). Kind of assay: DELFIA kinase assay, JNK3. The protocol: (§1) Assay DELFIA (Dissociation Enhanced Lanthanide Fluorescence Immuno-Assay) Assay:
(§2) Before initiation of kinase reactions, compounds were pre-incubated with the enzyme for 10 minutes. Pre-incubation reactions contained 50 mM HEPES pH 7.3, 10 mM MgCl2, 1 mM DTT, 75 mM NaCl, 1 mM EDTA, 1 mM EGTA, 0.01% CHAPS, 2 nM JNK1, 6 ug/mL biotinylated GST-ATF2, 0.1 mg/ml BSA, 5% DMSO and 0-100 μM compound in a total volume of 40 μL. After a 10 minute room temperature pre-incubation, 10 μL of 35 μM ATP was added to start the reaction (final concentration of ATP=7 uM). Reactions were incubated at room temperature for 30 minutes. A small aliquot (10 uL) was taken and quenched by adding into 190 uL of DELFIA Assay buffer containing 100 mM EDTA. The amount of phosphate transferred to biotinylated GST-ATF2 was measured using the Dissociation Enhanced Lanthanide Fluorescence Immuno-assay (DELFIA) from Perkin Elmer according to manufacturers protocol. Briefly, biotinylated GST-ATF2 was captured on streptavidin coated plates for 1 hour, washed twice, then incubated for 1 hour with a 1:1000 dilution of rabbit-anti-phospho-ATF2 antibody and a 1:3500 dilution of Europium-labeled anti-rabbit secondary antibody. Free antibody was removed with six washes, Europium was dissociated from the antibody, and Europium fluorescence was measured using an excitation wavelength of 340 nm and an emission wavelength of 615 nm. JNK2 and JNK3 kinase reactions were carried out similarly, with the exception that the final concentration of ATP was 4 uM and 2 uM, respectively.

In assay [2] the target is JNK1 (Homo sapiens, UniProt P45983). Kind of assay: DELFIA kinase assay, JNK1. The method in brief: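 Enzyme (2 nM JNK1) was preincubated 10 min with 0–100 μM compound in HEPES pH 7.3 with 5% DMSO, then reacted 30 min at room temperature with biotinylated GST-ATF2 (6 ug/mL). Final ATP was 7 uM for JNK1, 4 uM for JNK2 and 2 uM for JNK3. Phospho-ATF2 was detected by DELFIA europium fluorescence (ex 340, em 615 nm).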

For assay [3], the target named is JNK2 (Homo sapiens, UniProt P45984). In words: DELFIA kinase assay, JNK2. As to the method:
as §1, §2

Where [4] appears, read: DELFIA assay, 2 nM JNK1, 7 uM ATP, 10 min pre-incubation.
The mark [5] stands for this setting: DELFIA, biotinylated GST-ATF2 substrate, 10 minute pre-incubation, final ATP 7 uM.
Where [6] appears, read: DELFIA, biotinylated GST-ATF2 substrate, final ATP 2 uM.
The mark [7] stands for this setting: DELFIA, biotinylated GST-ATF2 substrate, final ATP 4 uM.
Where [8] appears, read: DELFIA assay, 2 nM JNK1, 7 uM ATP, 10 min pre-incubation, second table, read-out: JNK 1 IC50.

Structures are written as SMILES. Several values for one entry are separate records, joined by “and”; a condition that tells them apart may be missing. Equal values may be shown once. Read-outs that look alike come from different tables or passages of the source.

Sequence of JNK1 (P45983 whole entry, species assumed): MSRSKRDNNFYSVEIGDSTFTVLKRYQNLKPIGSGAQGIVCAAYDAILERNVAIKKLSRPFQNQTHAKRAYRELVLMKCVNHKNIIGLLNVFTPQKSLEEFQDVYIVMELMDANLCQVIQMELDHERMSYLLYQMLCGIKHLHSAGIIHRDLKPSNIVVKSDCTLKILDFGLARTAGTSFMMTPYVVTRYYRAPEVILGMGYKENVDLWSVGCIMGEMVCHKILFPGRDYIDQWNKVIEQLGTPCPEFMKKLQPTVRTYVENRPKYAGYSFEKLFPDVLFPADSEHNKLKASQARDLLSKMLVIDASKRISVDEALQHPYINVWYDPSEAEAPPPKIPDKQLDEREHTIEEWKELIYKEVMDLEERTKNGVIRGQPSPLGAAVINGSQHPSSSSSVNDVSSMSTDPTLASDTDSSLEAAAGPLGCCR
Sequence of JNK3 (P53779 whole entry, species assumed): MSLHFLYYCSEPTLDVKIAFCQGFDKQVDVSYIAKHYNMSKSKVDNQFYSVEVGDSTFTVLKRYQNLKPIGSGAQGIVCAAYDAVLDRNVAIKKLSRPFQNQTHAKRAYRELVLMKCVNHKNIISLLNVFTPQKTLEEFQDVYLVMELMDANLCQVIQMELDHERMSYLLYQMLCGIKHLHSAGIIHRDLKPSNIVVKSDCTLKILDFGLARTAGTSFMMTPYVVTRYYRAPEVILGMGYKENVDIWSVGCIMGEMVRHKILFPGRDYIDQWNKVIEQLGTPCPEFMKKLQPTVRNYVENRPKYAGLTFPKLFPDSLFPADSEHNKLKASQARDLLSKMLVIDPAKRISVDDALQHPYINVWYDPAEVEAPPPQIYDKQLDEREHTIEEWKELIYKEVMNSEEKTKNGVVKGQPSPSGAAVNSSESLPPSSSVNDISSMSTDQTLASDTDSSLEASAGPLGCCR
Sequence of JNK2 (P45984 whole entry, species assumed): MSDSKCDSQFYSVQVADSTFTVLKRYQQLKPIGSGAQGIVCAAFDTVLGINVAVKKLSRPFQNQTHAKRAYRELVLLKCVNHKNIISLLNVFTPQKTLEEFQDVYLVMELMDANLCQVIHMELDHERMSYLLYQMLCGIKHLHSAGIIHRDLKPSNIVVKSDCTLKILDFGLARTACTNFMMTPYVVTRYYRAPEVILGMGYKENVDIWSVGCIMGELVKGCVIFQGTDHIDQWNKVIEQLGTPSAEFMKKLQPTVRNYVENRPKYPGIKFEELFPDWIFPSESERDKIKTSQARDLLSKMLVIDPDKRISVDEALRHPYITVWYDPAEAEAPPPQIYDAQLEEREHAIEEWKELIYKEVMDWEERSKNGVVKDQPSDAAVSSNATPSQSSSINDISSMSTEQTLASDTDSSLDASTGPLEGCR

For orientation: IC50 means the concentration needed to halve the response being measured. For the compound `CC(C)NC(=O)c1cccc(C(=O)NCc2cnn(-c3cccc(C#N)c3)c2)n1` [Compound 134], the IC50 is 0.02 µM in assay [1] (DELFIA assay); 0.015 µM in assay [2] (setting [4]); 0.004 to 0.019 µM and 0.004 to 0.097 µM in assay [2] (setting [5]); 0.02 µM in assay [3] (DELFIA assay).
Take `CC(C)NC(=O)c1cccc(C(=O)NCc2cnn(-c3ccc(C#N)cc3)c2)n1` [Compound 135]: the IC50 is 0.016 µM in assay [1] (setting [6]); 0.004 to 0.097 µM and 0.027 µM in assay [2] (setting [5]); 0.048 µM in assay [3] (setting [7]).
As for `CC(C)NC(=O)c1cccc(C(=O)NCc2cnn(-c3ccc(S(C)(=O)=O)cc3)c2)n1` [Compound 137], the half-maximal inhibitory concentration (IC50) in assay [1] (DELFIA assay) is 0.012 µM; in assay [2] (setting [4]) it was 0.013 µM; in assay [2] (setting [5]), 0.004 to 0.019 µM and 0.004 to 0.097 µM; in assay [3] (DELFIA assay) it was 0.003 µM.
In the case of `CC(C)NC(=O)c1cccc(C(=O)NCc2cnn(-c3cccc(C(F)(F)F)c3)c2)n1` [Compound 140], the IC50 in assay [1] (setting [6]) was 0.009 µM; in assay [2] (setting [5]), 0.004 to 0.019 µM and 0.004 to 0.097 µM and 0.013 µM; in assay [3] (setting [7]) it was 0.011 µM.
For `CC(C)NC(=O)c1cccc(C(=O)NCc2cnn(-c3ccc4ncccc4c3)c2)n1` [Compound 142], the IC50 in assay [1] (setting [6]) is 0.009 µM; in assay [2] (setting [5]) it was 0.004 to 0.019 µM and 0.004 to 0.097 µM and 0.006 µM; in assay [3] (setting [7]), 0.008 µM.
For `CC(C)NC(=O)c1cccc(C(=O)NCc2cnn(-c3ccc(S(=O)(=O)N(C)C)cc3)c2)n1` [Compound 152], the half-inhibitory concentration (IC50) was 0.009 µM in assay [1] (setting [6]); 0.004 to 0.019 µM and 0.004 to 0.097 µM and 0.011 µM in assay [2] (setting [5]); 0.008 µM in assay [3] (setting [7]).
Regarding `CC(C)NC(=O)c1cccc(C(=O)NCc2cnn(-c3cnc4cccnc4c3)c2)n1` [Compound 222], the concentration for half-maximal inhibition (IC50) was 0.01 µM in assay [1] (DELFIA assay); 0.018 µM in assay [2] (setting [4]); 0.018 µM in assay [2] (setting [8]); 0.004 to 0.097 µM and 0.004 to 0.019 µM in assay [2] (setting [5]); 0.008 µM in assay [3] (DELFIA assay).
Take `Cc1nc2ccc(-n3cc(CNC(=O)c4cccc(C(=O)NC(C)C)n4)cn3)cc2n1C` [Compound 233]: the IC50 in assay [1] (DELFIA assay) was 0.012 µM; in assay [2] (setting [4]), 0.017 µM; in assay [2] (setting [8]), 0.017 µM; in assay [2] (setting [5]) it was 0.004 to 0.019 µM and 0.004 to 0.097 µM; in assay [3] (DELFIA assay), 0.011 µM.
Take `CC(C)NC(=O)c1cccc(C(=O)NCC2CCN(c3ccc(S(C)(=O)=O)cc3)CC2)n1` [Compound 422]: in assay [2] (setting [5]), the 50% inhibitory concentration (IC50) is > 1 µM and 1.03 to 10 µM.
Same read-out and setting: with `Cc1cccc(-n2cc(CNC(=O)c3ccc(F)c(C(=O)NC(C)C)n3)cn2)c1` [Compound 428] the figure was 0.004 to 0.097 µM; with `Cc1cccc(-n2cc(CNC(=O)c3nc(C(=O)NC(C)C)ccc3F)cn2)c1` [Compound 429], 0.102 to 0.959 µM; with `CC(C)NC(=O)c1cc(O)cc(C(=O)NCc2cnn(-c3ccc4nccnc4c3)c2)n1` [Compound 436], 0.004 to 0.097 µM.

Values taken from patent publication US8278337B2, “Substituted pyridines that are JNK inhibitors” (Merck Sharp & Dohme, priority 2006, dated 2012).
